In patent US20220251084A1, “PROGRANULIN MODULATORS AND METHODS OF USING THE SAME” (ARKUDA THERAPEUTICS, priority 2019, published 2022):

Test system: progranulin (PGRN) secretion, BV-2 cells
Assay: PGRN assay: progranulin induction cellular assay (ELISA of secreted mouse PGRN)
Format: cell-based
Settings: not given
Experimental: Cellular Assays: To measure the efficacy of compounds, a progranulin induction cellular assay in mouse primary microglia (pMG), primary cortical neurons, and BV-2 cell lines is used. BV-2 cells are split the day before plating into a 96 well plate format at approximately 80%. Cells should be plated the day before and allowed for 1 hour attachment period and for 16 hour incubation. […] Standard ELISA kits to measure PGRN are available from vendors such as Adipogen, R&D, and Biovendor.

| Structure (SMILES) | EC50 |
| --- | --- |
| O=C(O[C@@H]1CN2CCC1(F)CC2)N1CCc2ccccc2[C@@H]1c1ccc(F)cc1 (single isomer, unassigned) [Compound 2126] | 1250 nM |
| O=C(O[C@H]1CN2CCC1(F)CC2)N1CCc2ccccc2[C@@H]1c1ccc(F)cc1 (single isomer, unassigned) [Compound 2127] | 1860 nM |

Same assay, conditions: Mus musculus, BV-2, PGRN assay, Table C; secreted mouse PGRN in cell culture medium, ELISA

| Structure (SMILES) | EC50 |
| --- | --- |
| CN1C[C@H]2CC[C@@H](OC(=O)N3CCc4ccccc4[C@@H]3c3ccc(F)cc3)[C@H]2C1 (relative stereo) [Compound 2061, (1 S)-(rel-(3′aR,6′aS)-2′-methyloctahydrocyclopenta[c]pyrrol-4-yl)-1-(4-fluorophenyl)-3,4-dihydroisoquinoline-2(1H)-carboxylate] | 321 nM |
| CN1C[C@@H]2CC[C@H](OC(=O)N3CCc4ccccc4[C@@H]3c3ccc(F)cc3)[C@@H]2C1 (relative stereo) [Compound 2062, (1 S)-(rel-(3′aR,6′aS)-2′-methyloctahydrocyclopenta[c]pyrrol-4-yl)-1-(4-fluorophenyl)-3,4-dihydroisoquinoline-2(1H)-carboxylate] | 1120 nM |
| CN1CCS(=O)(=O)[C@@H](CC(=O)N2CCc3ccccc3[C@@H]2c2ccc(F)cc2)C1 (single isomer, unassigned) [Compound 2043] | > 10000 nM |
| CN1CC2OCC(OC(=O)N3CCc4ccccc4[C@@H]3c3ccc(F)cc3)C2C1 (single isomer, unassigned) [Compound 2076] | > 10000 nM |
| CN1CC2CCC(C1)C2OC(=O)N1CCc2ccccc2[C@@H]1c1ccc(F)cc1 (single isomer, unassigned) [Compound 2093] | 379 nM |
| CN1[C@H]2COC[C@H]1CC(OC(=O)N1CCc3ccccc3[C@@H]1c1ccc(F)cc1)C2 (single isomer, unassigned) [Compound 2099] | 1880 nM |
| O=C(O[C@H]1[C@@H]2CC[C@H]1CNC2)N1CCc2ccccc2[C@@H]1c1ccc(F)cc1 (single isomer, unassigned) [Compound 2102] | 278 nM |
| O=C(O[C@@H]1[C@@H]2CC[C@H]1CNC2)N1CCc2ccccc2[C@@H]1c1ccc(F)cc1 (single isomer, unassigned) [Compound 2103] | 4280 nM |
| Fc1ccc(C2c3ccccc3CCN2C(C[C@@H]2CN3CCC2CC3)C(F)(F)F)cc1 (single isomer, unassigned) [Compound 2132] | 3070 nM |
| O=C(OCC12CCN(CC1)CC2)N1CCc2ccccc2[C@@H]1c1cc(F)cc(F)c1 (single isomer, unassigned) [Compound 2140, quinuclidin-4-ylmethyl-1-(3,5-difluorophenyl)-3,4-dihydroisoquinoline-2(1H)-carboxylate] | 9910 nM |
| O=C(OCC12CCN(CC1)CC2)N1CCc2ccccc2[C@H]1c1cc(F)cc(F)c1 (single isomer, unassigned) [Compound 2141, quinuclidin-4-ylmethyl-1-(3,5-difluorophenyl)-3,4-dihydroisoquinoline-2(1H)-carboxylate] | > 10000 nM |
| O=C([C@@H](O)CC12CCN(CC1)CC2)N1CCc2ccccc2[C@@H]1c1ccc(F)cc1 (single isomer, unassigned) [Compound 2153] | > 10000 nM |
| O=C([C@H](O)CC12CCN(CC1)CC2)N1CCc2ccccc2[C@@H]1c1ccc(F)cc1 (single isomer, unassigned) [Compound 2154] | 353 nM |
| C#CCOc1ccc2c(c1)C(c1ccc(F)cc1)N(C(=O)OCC13CCN(CC1)CC3)CC2 (stereo in doubt) [Compound 2053, (S)-quinuclidin-4-ylmethyl 1-(4-fluorophenyl)-7-(prop-2-ynyloxy)-3,4-dihydroisoquinoline-2(1H)-carboxylate] | 5740 nM |
| O=C([C@H](O)[C@@H]1CN2CCC1CC2)N1CCc2ccccc2[C@@H]1c1ccc(F)cc1 (stereo in doubt) [Compound 2075, 1-((S)-1-(4-fluorophenyl)-3,4-dihydroisoquinolin-2(1H)-yl)-2-hydroxy-2-(quinuclidin-3-yl)ethanone] | 895 nM |
| CN1CC2CCC(C1)C2OC(=O)N1CCc2ccccc2[C@@H]1c1ccc(F)cc1 (stereo in doubt) [Compound 2094, (1S)-3-methyl-3-aza-bicyclo[3.2.1]octan-8-yl 1-(4-fluorophenyl)-3,4-dihydroisoquinoline-2(1H)-carboxylate] | 7220 nM |

Further lines, results first:

| EC50 | Structure (SMILES) |
| --- | --- |
| > 10000 nM | CN1CC2COC[C@@H](C1)[C@H]2OC(=O)N1CCc2ccccc2[C@@H]1c1ccc(F)cc1 (single isomer, unassigned) [Compound 2106] |
| > 10000 nM | CN1CCC(COC(=O)N2CCc3ccccc3[C@H]2c2ccc(F)c(F)c2)CC1 (single isomer, unassigned) [Compound 2139, (1-methylpiperidin-4-yl)methyl-1-(3,4-difluorophenyl)-3,4-dihydroisoquinoline-2(1H)-carboxylate] |
| 2540 nM | O=C(O[C@H]1CCCNC1)N1CCc2ccccc2[C@@H]1c1ccc(F)cc1 (single isomer, unassigned) [Compound 2168] |
| 220 nM | O=C(O[C@@H]1CCCNC1)N1CCc2ccccc2[C@@H]1c1ccc(F)cc1 (single isomer, unassigned) [Compound 2181] |
| > 10000 nM | O=C1C[C@H](COC(=O)N2CCc3ccccc3[C@@H]2c2ccc(F)cc2)CCN1 (single isomer, unassigned) [Compound 2185, (1 S)-(2-oxopiperidin-4-yl)methyl 1-(4-fluorophenyl)-3,4-dihydroisoquinoline-2(1H)-carboxylate] |
| > 10000 nM | O=C1C[C@@H](COC(=O)N2CCc3ccccc3[C@@H]2c2ccc(F)cc2)CCN1 (single isomer, unassigned) [Compound 2186, (1 S)-(2-oxopiperidin-4-yl)methyl 1-(4-fluorophenyl)-3,4-dihydroisoquinoline-2(1H)-carboxylate] |

Same assay, conditions: Mus musculus, BV-2, PGRN assay, Table D; secreted mouse PGRN in cell culture medium, ELISA

| EC50 | Structure (SMILES) |
| --- | --- |
| 860 nM | O=C(NC[C@H]1CNCCO1)N1CCc2ccccc2[C@@H]1c1ccc(F)cc1 (single isomer, unassigned) [Compound 2210] |
| 3030 nM | CN(C(=O)N1CCc2ccccc2[C@@H]1c1ccc(F)cc1)[C@H]1CCCNC1 (single isomer, unassigned) [Compound 2211] |
| 3050 nM | CN(C(=O)N1CCc2ccccc2[C@H]1c1ccc(F)cc1)[C@@H]1CCCNC1 (single isomer, unassigned) [Compound 2212] |
| 3530 nM | CN(C(=O)N1CCc2ccccc2[C@@H]1c1ccc(F)cc1)[C@@H]1CCCNC1 (single isomer, unassigned) [Compound 2213] |
| 6210 nM | O=C(NC[C@H]1CCCN1)N1CCc2ccccc2[C@H]1c1ccc(F)cc1 (single isomer, unassigned) [Compound 2219] |
| 5500 nM | O=C(NC[C@H]1CCCNC1)N1CCc2ccccc2[C@@H]1c1ccc(F)cc1 (single isomer, unassigned) [Compound 2220] |
| 240 nM | O=C(OC[C@@]1(F)CCNC1)N1CCc2ccccc2[C@@H]1c1ccc(F)cc1 (single isomer, unassigned) [Compound 2255] |
| 1060 nM | O=C(N[C@@H]1CNCCOC1)N1CCc2ccccc2[C@@H]1c1ccc(F)cc1 (single isomer, unassigned) [Compound 2277] |
| 439 nM | O=C(N[C@H]1CNCCOC1)N1CCc2ccccc2[C@H]1c1ccc(F)cc1 (single isomer, unassigned) [Compound 2278] |
| 3440 nM | N[C@H]1CCN(C(=O)N2CCc3ccccc3[C@H]2c2ccc(F)cc2)C1 (single isomer, unassigned) [Compound 2285] |
| 2330 nM | CN1CC[C@H](O)[C@@H](O)[C@@H]1COC(=O)N1CCc2ccccc2[C@@H]1c1ccc(F)cc1 (single isomer, unassigned) [Compound 2304] |
| 5870 nM | CN1CC[C@H](O)[C@@H](OC(=O)N2CCc3ccccc3[C@@H]2c2ccc(F)cc2)[C@@H]1CO (single isomer, unassigned) [Compound 2305] |
| 9740 nM | CN1C[C@@H](NC(=O)N2CCc3ccccc3[C@@H]2c2ccc(F)cc2)C2(CC2)C1 (single isomer, unassigned) [Compound 2317] |
| 3350 nM | CN1C[C@@H](NC(=O)N2CCc3ccccc3[C@H]2c2ccc(F)cc2)C2(CC2)C1 (single isomer, unassigned) [Compound 2318] |
| 8870 nM | O=C(N1CC[C@@]2(CNCCO2)C1)N1CCc2ccccc2[C@H]1c1ccc(F)cc1 (single isomer, unassigned) [Compound 2323] |
| 742 nM | O=C(N1CC[C@@]2(CNCCO2)C1)N1CCc2ccccc2[C@@H]1c1ccc(F)cc1 (single isomer, unassigned) [Compound 2324] |
| 4700 nM | O=C(N1CC[C@]2(CNCCO2)C1)N1CCc2ccccc2[C@H]1c1ccc(F)cc1 (single isomer, unassigned) [Compound 2325] |
| 189 nM | O=C(N1CC[C@]2(CNCCO2)C1)N1CCc2ccccc2[C@@H]1c1ccc(F)cc1 (single isomer, unassigned) [Compound 2326] |
| 360 nM | O=C(N[C@H]1CNCC1(F)F)N1CCc2ccccc2[C@@H]1c1ccc(F)cc1 (stereo in doubt) [Compound 2243, (1 S)—N-(4,4-difluoropyrrolidin-3-yl)-1-(4-fluorophenyl)-3,4-dihydroisoquinoline-2(1H)-carboxamide] |

| Structure (SMILES) | EC50 |
| --- | --- |
| CN1[C@H]2CC[C@@H]1[C@H](NC(=O)N1CCc3ccccc3[C@@H]1c1ccc(F)cc1)C2 (single isomer, unassigned) [Compound 2225] | 1010 nM |

Same assay, conditions: PGRN assay, Table D; secreted mouse PGRN in cell culture medium, ELISA

| EC50 | Structure (SMILES) |
| --- | --- |
| > 10000 nM | CN(C(=O)N1CCc2ccccc2[C@H]1c1ccc(F)cc1)[C@H]1CCNC1 (single isomer, unassigned) [Compound 2249] |
| 447 nM | O=C(N[C@H]1CNCCOC1)N1CCc2ccccc2[C@@H]1c1ccc(F)cc1 (single isomer, unassigned) [Compound 2275] |
| 1050 nM | O=C(N[C@H]1CNCCOC1)N1CCc2ccccc2[C@@H]1c1ccc(F)cc1 (single isomer, unassigned) [Compound 2276] |
